Calls of active or inactive are those of the source. No cut-off for these calls is given here.

Data set [1] in a line: Antiviral activity against HSV1 CL-101 infected in African green monkey Vero cells assessed as reduction of viral titer at 200 uM after 40 hrs. The data set is classed as functional, Herpes simplex virus (type 1 / strain CL101).
A further data set relates to Sarcoma-180. Kind of data set: Cytotoxicity against mouse Sarcoma 180 cells after 1 to 3 days by coulter counter analysis. The data set is classed as functional, cell-based.
Data set [2] can be described thus: Therapeutic index, ratio of cytotoxicity against African green monkey Vero cells to antiviral activity against HSV1 CL-101. Type of data set: cell-based. The following applies: read-out: TI.
The nature of data set [3]: Antiviral activity against HSV1 CL-101 infected in African green monkey Vero cells assessed as reduction of viral titer at 50 uM after 40 hrs. Type of data set: functional, Herpes simplex virus (type 1 / strain CL101).
The next data set relates to Vero. Kind of data set: Cytotoxicity against African green monkey Vero cells at 1 uM after 3 days by haemocytometer analysis. Type of data set: cell-based. The following applies: chlorocebus sabaeus, 72 h.

On to `[N-]=[N+]=NC[C@H]1O[C@@H](n2cc(C(F)(F)F)c(=O)[nH]c2=O)C[C@@H]1O`, for which the Activity in data set [1] is listed as 1.7 ×10⁶ PFU. For the same molecule, the result with Sarcoma-180 was Active.

In the case of `NC[C@H]1O[C@@H](n2cc(C(F)(F)F)c(=O)[nH]c2=O)C[C@@H]1O`, the Activity in data set [1] was determined as 1 ×10⁵ PFU. Further, in data set [2], the selectivity ratio was 10. In the data set with Sarcoma-180, the outcome was Active.

For the molecule `O=c1[nH]c(=O)n([C@H]2C[C@H](O)[C@@H](CO)O2)cc1C(F)(F)F` [TRIFLURIDINE], the Activity is on record as 1.5 ×10⁵ PFU in data set [3] and “Toxic” in the data set on Vero. Besides, the result in the data set on Sarcoma-180 was Active.

The values are drawn from ChEMBL document CHEMBL3271973, “Synthesis and biological activities of 5-trifluoromethyl-5'-azido-2',5'-dideoxyuridine and 5-trifluoromethyl-5'-amino-2',5'-dideoxyuridine” (J Med Chem, 1976).
